Test results from patent US20100204263A1, “METHOD OF TREATING MULTIDRUG RESISTANT CANCERS” (priority 2007, published 2010).
Read-outs that look alike come from different tables or passages of the source.

How the values were obtained:
[1] = tested on: K562 (human leukemia) cell lines and a K562 cell line selected for resistance to daunorubicin; experiment: MTS cell proliferation assay, K562 and K562 resistant cell lines; type: cell-based
Description: MTS assay is an assay in which the bioreduction of the MTS reagent (3-(4,5-dimethylthiazol-2-yl)-5-(3-carboxymethoxyphenyl)-2-(4-sulfophenyl)-2H-tetrazolium)) by cells is being measured to assess metabolic activity of cells is based on the ability of a mitochondrial dehydrogenase enzyme from viable cells to cleave the tetrazolium rings of the MTS and form formazan crystals which are largely impermeable to cell membranes, thus resulting in its accumulation within healthy cells. Solubilization of the cells by the addition of a detergent results in the liberation of the crystals which are solubilized. The number of surviving cells is directly proportional to the level of the formazan product created. The color can then be quantified using a simple colorimetric assay. The results can be read on a multiwell scanning spectrophotometer (ELISA reader).

[2] = tested on: IGROV1 (human ovarian) cell line; experiment: SRB cell proliferation assay, IGROV1; type: cell-based
Description: (§1) The T8 resistant cell line has been characterized with over-expression of the multidrug resistant protein BCRP (breast cancer resistance protein). Topotecan, which is a known substrate for BCRP, was used as a control.
(§2) Sulforhodamine-B (SRB) assay is performed to assess cell survival. SRB is a water-soluble dye that binds to the basic amino acids of the cellular proteins. Thus, colorimetric measurement of the bound dye provides an estimate of the total protein mass that is related to the cell number. The color can then be quantified using a simple colorimetric assay. The results can be read on a multiwell scanning spectrophotometer (ELISA reader).

[3] = tested on: HL60 (human promyelocytic leukemia) cells; experiment: WST-1 cell proliferation assay, HL60; type: cell-based; settings: HL-60, wild-type HL60, WST-1, read-out: IC50 HL60
Description: (§3) The HL60NCR resistant cell line has been characterized with over-expression of the multidrug resistant protein (MDR; p-glycoprotein). The over-expression ratio (level of MDR in resistant cell line over level of MDR in the parental cell line) is 8 fold with a 10 fold increase in pgp function. Pgp surface expression was measured by flow cytometry with the MRK16 antibody and Pgp function with the generic substrate, Rh123.
(§4) WST-1 is a water-soluble tetrazolium salt that can be used for cell proliferation or cell viability assays. The rate of WST-1 cleavage by mitochondrial dehydrogenases correlates with the number of viable cells in the culture. WST-1 is added directly to the cells ( 1/10th of the culture volume) and absorbance at 450 nm can be measured using an ELISA plate reader following a short incubation at 37° C.

[4] = tested on: Pgp, MRP-1 or BCRP; experiment: Resistance Ratios in three pairs of parental and resistant cell lines; type: cell-based, human; settings: IC50 resistant / IC50 parental; HL60-HL60VCR, HL60-HL60ADR, 8226-8226/MR20
Description: The Resistance Ratios were calculated as IC50 of the resistant cell line/IC50 of the parental cell line.

[5] = tested on: Pgp, MRP-1 or BCRP; experiment: Resistance Modifying Factors in three pairs of parental and resistant cell lines; type: cell-based, human; settings: IC50 resistant without modulator / with modulator
Description: The Resistance Modifying Factors were calculated as IC50 of the resistant cell line in the absence of modulator/IC50 of the resistant cell line in the presence of modulator.

[6] = tested on: K562-K562/DOX cells (Pgp negative and Pgp positive); experiment: Drug accumulation assay, amonafide retention in K562 and K562/DOX; type: cell-based, human
Description: Functional expression analyses of Pgp were performed on a BD FACSCalibur flow cytometer (Franklin Lakes, N.J.). […] Data analysis was performed using the Dako Cytomation Summit software, version 4.0 (Fort Collins, Colo.). […] Differential Pgp staining of anti-Pgp treated cells was compared to that of control cells counted with the same number of gated events. All test samples were compared to their respective controls using Kolmogorov-Smirnov (KS) non-parametric statistics and expressed as D-values ranging from 0 to 1. These analyses were performed using the NCSS 2007 software (Kaysville, Utah). This approach addresses the maximum difference between two empirical distribution functions.

[7] = tested on: HL60 cells (Pgp negative); experiment: Drug accumulation assay, HL60; type: cell-based, human; settings: HL60, increasing concentrations of amonafide
Description: (§5) Functional expression analyses of Pgp were performed on a BD FACSCalibur flow cytometer (Franklin Lakes, N.J.). […] Data analysis was performed using the Dako Cytomation Summit software, version 4.0 (Fort Collins, Colo.).

[8] = tested on: HL60/VCR cells (Pgp positive); experiment: Drug accumulation assay, HL60/VCR; type: cell-based, human
Description: as §5

[9] = tested on: HL60/ADR cells (MRP-1 positive); experiment: Drug accumulation assay, HL60/ADR; type: cell-based, human
Description: Following uptake, the cells were washed with PBS and resuspended in fresh medium. An aliquot of cells from each sample was placed on ice for quantitation of baseline drug uptake. The remaining cells were incubated further and then resuspended in chilled fresh medium, and placed on ice for immediate flow cytometric analysis.
Functional expression analyses of MRP-1 were performed on a BD FACSCalibur flow cytometer (Franklin Lakes, N.J.). Cellular amonafide content was measured on the Cytopeia Influx flow cytometer (Seattle, Wash.). Data analysis was performed using the Dako Cytomation Summit software, version 4.0 (Fort Collins, Colo.).

[10] = tested on: 8226/MR20 cells (BCRP positive); experiment: Drug accumulation assay, 8226/MR20; type: cell-based, human; settings: 8226/MR20 ± FTC
Description: Functional expression analyses of BCRP were performed on a BD FACSCalibur flow cytometer (Franklin Lakes, N.J.). […] Data analysis was performed using the Dako Cytomation Summit software, version 4.0 (Fort Collins, Colo.).

[11] = tested on: pretreatment secondary AML patient cells; experiment: Amonafide and daunorubicin efflux in cryopreserved cells of patients treated with amonafide+cytarabine; type: cell-based, human; settings: cells from 15 patients treated with amonafide+cytarabine
Description: Cryopreserved cells were tested for viability and samples with viabilities less than 40% were considered inevaluable and discarded.
To measure drug uptake, the substrates were incubated with cells in medium containing each drug alone, or in combination with the modulator at the desired final concentrations. Cells were then washed and resuspended in PBS, and placed on ice. Drug-associated fluorescence was measured by flow cytometry using a FacScan flow cytometer (Becton Dickinson Immunocytometry Systems, San Jose, Calif.) equipped in standard fashion with an Argon laser for 488 nm excitation and a 585/42 band-pass filter (FL2) or a 670 long-pass (FL3) filter for emission collection. Data were analyzed with WinList software (Verity Software House, Topsham, Me.).

[12] = tested on: P388 (murine leukemia) cell lines and a P388 cell line selected for resistance to doxorubicin; settings: MTT
Description: The P388 resistant cell line has been characterized with over-expression of the multidrug resistant protein (MDR; p-glycoprotein).
MTT [3-(4,5-dimethylthiazol-2-yl)-2,5-diphenyltetrazolium bromide] assay, first described by Mosmann in 1983, is based on the ability of a mitochondrial dehydrogenase enzyme from viable cells to cleave the tetrazolium rings of the pale yellow MTT and form a dark blue formazan crystals which is largely impermeable to cell membranes, thus resulting in its accumulation within healthy cells. Solubilization of the cells by the addition of a detergent results in the liberation of the crystals which are solubilized. The number of surviving cells is directly proportional to the level of the formazan product created. The color can then be quantified using a simple colorimetric assay. The results can be read on a multiwell scanning spectrophotometer (ELISA reader).

[13] = tested on: MCF7 (human breast cancer) cell lines and a MCF7 cell line selected for resistance to doxorubicin; settings: clonogenic
Description: The MCF7 resistant cell line has been characterized with over-expression of the multidrug resistant protein (MDR; p-glycoprotein).
In the clonogenic assay cells are treated in vitro and then suspended in a soft agar/cell media mixture. The cells are allowed to grow in definable and distinct clumps of cells, referred to as clones, based upon the survival of the cells originally treated. After a defined time span the number of clones is then counted by microscope.

[14] = tested on: Caco-2 cell monolayers; settings: human, Caco-2, 120 min, 5 μM
Description: (§6) Caco-2 cell permeability studies were performed using Caco-2 cell monolayers grown on microporous membranes in multiwell insert systems. […] The samples were analyzed using LC/MS detection. […] This is the slope of the basolateral concentration versus time curve divided by the concentration of compound in the apical dosing chamber and the total area of the Caco-2 cell monolayer.

[15] = tested on: MDR1-MDCK cells (P-gp)
Description: (§7) MDR1-MDCK are Madin Darby Canine Kidney cells transfected with the human multi-drug resistance gene. Confluent monolayers made from these cells can be used to access a test compound's potential role as a P-gp substrate. The assay set up is similar to the CaCo-2 assay.
(§8) The samples were analyzed using LC/MS detection.

[16] = molecular target: T1, Pgp (Homo sapiens, UniProt P08183)
T1 sequence (P08183 whole entry): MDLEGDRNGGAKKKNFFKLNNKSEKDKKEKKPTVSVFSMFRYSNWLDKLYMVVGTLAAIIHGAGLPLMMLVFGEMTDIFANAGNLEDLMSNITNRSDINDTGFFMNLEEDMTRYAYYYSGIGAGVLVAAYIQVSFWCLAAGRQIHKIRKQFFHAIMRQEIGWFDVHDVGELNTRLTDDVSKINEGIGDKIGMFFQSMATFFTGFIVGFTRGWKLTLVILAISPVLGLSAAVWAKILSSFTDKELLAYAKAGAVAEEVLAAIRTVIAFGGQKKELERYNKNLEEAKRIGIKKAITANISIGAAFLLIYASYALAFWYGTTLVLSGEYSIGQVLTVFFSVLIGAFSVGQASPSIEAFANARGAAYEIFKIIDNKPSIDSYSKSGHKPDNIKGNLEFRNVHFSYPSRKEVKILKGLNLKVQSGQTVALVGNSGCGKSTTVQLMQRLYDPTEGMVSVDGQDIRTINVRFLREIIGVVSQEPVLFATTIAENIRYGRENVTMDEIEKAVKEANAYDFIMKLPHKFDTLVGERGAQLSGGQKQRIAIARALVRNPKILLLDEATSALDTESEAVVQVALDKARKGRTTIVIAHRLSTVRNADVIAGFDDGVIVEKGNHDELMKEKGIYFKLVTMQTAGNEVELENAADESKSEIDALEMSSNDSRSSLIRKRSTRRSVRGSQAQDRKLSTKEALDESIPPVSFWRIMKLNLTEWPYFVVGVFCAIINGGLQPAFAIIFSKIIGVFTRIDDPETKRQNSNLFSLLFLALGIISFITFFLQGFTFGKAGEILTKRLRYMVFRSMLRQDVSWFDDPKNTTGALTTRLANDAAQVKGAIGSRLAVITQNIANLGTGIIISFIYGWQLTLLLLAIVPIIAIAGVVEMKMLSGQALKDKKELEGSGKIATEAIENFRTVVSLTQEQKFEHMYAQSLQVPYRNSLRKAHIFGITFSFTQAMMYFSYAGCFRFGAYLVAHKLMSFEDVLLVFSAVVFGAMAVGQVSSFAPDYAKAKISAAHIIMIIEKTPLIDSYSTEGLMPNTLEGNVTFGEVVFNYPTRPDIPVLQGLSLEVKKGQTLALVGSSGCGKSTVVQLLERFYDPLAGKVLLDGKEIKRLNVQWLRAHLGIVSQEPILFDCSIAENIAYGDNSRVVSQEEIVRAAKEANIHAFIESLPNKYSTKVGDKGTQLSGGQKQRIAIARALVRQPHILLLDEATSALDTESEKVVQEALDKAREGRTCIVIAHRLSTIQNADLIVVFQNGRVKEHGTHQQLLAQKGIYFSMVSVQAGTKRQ
Description: (§9) Both the Caco-2 and MDR1-MDCK cells were used for this model.

[17] = molecular target: T1, Pgp; settings: digoxin + test compound
Description: as §7, §9

[18] = tested on: IGROV1-T8, a cell line selected for resistance to topotecan (increased BCRP expression); experiment: cells; settings: Homo sapiens
Description: as §1, §2

[19] = tested on: P-gp; experiment: in vitro; settings: human
Description: as §6

[20] = tested on: P-gp; experiment: in vitro; settings: human, MDCK-MDR1, efflux/influx ratio, Drug alone
Description: as §7, §8

[21] = tested on: Caco-2 cell monolayers; experiment: Caco-2 cell monolayer permeability
Description: as §6

[22] = tested on: HL60/VCR (HL60/MDR), a cell line selected for resistance to vincristine; experiment: WST-1 cell proliferation assay, HL60/VCR
Description: as §3, §4

[23] = tested on: HL60/ADR, a cell line selected for resistance to adriamycin (MRP-1); experiment: WST-1 cell proliferation assay, HL60/ADR
Description: The HL60/ADR resistant cell line has been characterized with over-expression of the multidrug resistant protein (MRP-1).
as §4

[24] = tested on: 8226/MR20, a cell line selected for resistance to mitoxantrone (BCRP); experiment: WST-1 cell proliferation assay, 8226/MR20
Description: The 8226/MR20 resistant cell line has been characterized with over-expression of the multidrug resistant protein (BCRP).
BCRP surface expression was measured by flow cytometry with the BXP21 antibody.
as §4

SMILES: CN(C)CCN1C(=O)c2cccc3cc(N)cc(c23)C1=O [Amonafide, amonafide]
- potency in resistant vs non-resistant cell line [1]: equipotent in both cell lines
- IC50 ([2]; IGROV-1, IGROV1, average, read-out: IC50 (average)): 2930 nM
- IC50 ([2]; IGROV-1, IGROV1, experiment (1), read-out: IC50): 2540 nM
- IC50 ([2]; IGROV-1, IGROV1, experiment (2), read-out: IC50): 3730 nM
- IC50 ([2]; IGROV-1, IGROV1, experiment (3), read-out: IC50): 2530 nM
- IC50 [3]: 6.98 µM
- substrate status from Resistance Ratios [4]: not a substrate for Pgp, MRP-1 or BCRP
- substrate status from Resistance Modifying Factors [5]: not a substrate for Pgp, MRP-1 or BCRP
- Amonafide uptake and efflux, comparison of the two cell lines ([6]; K562 vs K562/DOX): not significantly different between the two cell lines
- amonafide content in presence of Pgp inhibitor PKC412 ([6]; each cell line ± PKC412): did not significantly change
- amonafide accumulation [7]: increases with increasing amonafide dose
- Amonafide uptake and efflux in presence of Pgp inhibitor PSC833 [8]: did not significantly change
- Amonafide uptake and efflux in presence of MRP-1 inhibitor MK571 [9]: did not significantly change
- Amonafide uptake and efflux in presence of BCRP inhibitor FTC [10]: did not significantly change
- drug efflux in relation to clinical response (CR vs non-CR) [11]: no significant difference
- potency in resistant vs non-resistant cell line [12]: equipotent in both cell lines
- potency in resistant vs non-resistant cell line [13]: equipotent in both cell lines
- efflux/influx ratio, Caco-2, Drug alone [14]: 0.9
- efflux/influx ratio, MDR1-MDCK, +CSA ([15]; +CSA): 1.2 ± 0.8
- efflux/influx ratio, MDR1-MDCK, Drug alone ([15]; Drug alone): 2.2
- effect of addition of CSA on efflux ([15]; MDR1-MDCK): did not have any effect
- Pgp substrate / inhibitor status (conclusion) ([15]; conclusion from Caco-2 and MDR1-MDCK studies): neither a substrate nor an inhibitor of Pgp
- effect on digoxin efflux ([16]; Caco-2): no effect
- % Inhib. of control, digoxin efflux, Caco-2 ([16]; digoxin + test compound): 0%
- % Inhib. of control, digoxin efflux, MDR1-MDCK [17]: 10%
- IC50 ([18]; T8, experiment (1)): 5.18 µM
- IC50 ([18]; T8, experiment (2)): 4.87 µM
- IC50 ([18]; T8, experiment (3)): 5.83 µM
- IC50 ([18]; read-out: IC50 (average), T8, average): 5.29 µM
- Papp B→A at 120 min, 5 μM ([19]; Caco-2): 26.8 ×10⁻⁶ cm/s
- efflux ratio at 120 min, 5 μM ([19]; Caco-2, efflux/influx ratio, Caco-2, +CSA): 1.1 ± 0.4
- efflux ratio at 120 min, 5 μM ([19]; Caco-2, efflux/influx ratio, Caco-2, Drug alone): 0.9 ± 0.2
- efflux ratio at 120 min, 5 μM ([19]; Caco-2, ratio of Papp(B-A)/Papp(A-B)): 1
- efflux ratio at 120 min, 5 μM [20]: 2.2 ± 0.8
- effect of addition of CSA on efflux ([21]; Caco-2): did not have any effect
- efflux classification ([21]; high efflux if ratio ≧3.0 and Papp(B-A) ≧1.0×10^−6 cm/s): not having significant efflux
- Fold Change in IC50 ([22]; HL60/MDR vs HL60): 0.29
- cytotoxicity in presence of Pgp inhibitor PSC833 ([22]; HL60/VCR ± PSC833): unaffected
- potency in both cell lines ([22]; HL60 vs HL60/VCR): equipotent in both cell lines
- IC50 ([22]; Homo sapiens, HL60/VCR, read-out: IC50 HL60/MDR): 2040 nM
- cytotoxicity in presence of MRP1 inhibitor MK571 ([23]; HL60/ADR ± MK571): unaffected
- potency in both cell lines ([23]; HL60 vs HL60/ADR): equipotent in both cell lines
- cytotoxicity in presence of BCRP inhibitor Fumitremorgin C ([24]; 8226/MR20 ± Fumitremorgin C): unaffected
- potency in both cell lines ([24]; 8226 vs 8226/MR20): equipotent in both cell lines
